# Test results from patent US20240398812A1 (Caraway Therapeutics, Inc., priority 2021, published 2024).
# pEC50: −log10 of the molar value.
# Key:
# Format in all cases: cell-based
# TRPML3 = molecular target: T1, TRPML3 (Homo sapiens, UniProt Q8TDD5); assay: Fluorescent TRPML3 assay (as for TRPML1)
# T1 construct: expressed in transfected cells
# T1 sequence (Q8TDD5 1-553): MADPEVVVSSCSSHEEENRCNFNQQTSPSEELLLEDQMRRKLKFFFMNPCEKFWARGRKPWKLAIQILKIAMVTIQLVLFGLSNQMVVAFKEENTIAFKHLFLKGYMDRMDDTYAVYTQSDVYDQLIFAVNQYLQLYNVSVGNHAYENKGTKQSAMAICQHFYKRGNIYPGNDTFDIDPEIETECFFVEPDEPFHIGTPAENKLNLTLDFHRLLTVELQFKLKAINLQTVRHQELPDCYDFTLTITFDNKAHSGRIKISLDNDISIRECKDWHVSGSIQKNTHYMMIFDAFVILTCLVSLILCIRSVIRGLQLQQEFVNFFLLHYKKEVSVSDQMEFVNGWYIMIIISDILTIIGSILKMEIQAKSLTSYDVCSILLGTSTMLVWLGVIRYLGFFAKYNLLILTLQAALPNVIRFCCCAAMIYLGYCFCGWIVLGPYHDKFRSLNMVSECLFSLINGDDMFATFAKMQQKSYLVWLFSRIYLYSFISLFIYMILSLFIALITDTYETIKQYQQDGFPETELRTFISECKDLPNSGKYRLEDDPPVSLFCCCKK
# In short: (§1)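 HEK-293 Trex cells with tet-inducible (0.5 ug/mL doxycycline, overnight) surface-targeted mutant channel, Fluo4-AM loaded, suspended in Ringer's with 10 mM calcium. Compounds tested 20 µM to 6 nM final, half-log steps, triplicate; fluorescence at ex 480/em 540 nm. EC50 by non-linear regression of percent activity versus plate controls.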
# TRPML2 = molecular target: T2, TRPML2 (Homo sapiens, UniProt Q8IZK6); assay: Fluorescent TRPML2 assay (as for TRPML1)
# T2 construct: expressed in transfected cells
# T2 sequence (Q8IZK6 1-566): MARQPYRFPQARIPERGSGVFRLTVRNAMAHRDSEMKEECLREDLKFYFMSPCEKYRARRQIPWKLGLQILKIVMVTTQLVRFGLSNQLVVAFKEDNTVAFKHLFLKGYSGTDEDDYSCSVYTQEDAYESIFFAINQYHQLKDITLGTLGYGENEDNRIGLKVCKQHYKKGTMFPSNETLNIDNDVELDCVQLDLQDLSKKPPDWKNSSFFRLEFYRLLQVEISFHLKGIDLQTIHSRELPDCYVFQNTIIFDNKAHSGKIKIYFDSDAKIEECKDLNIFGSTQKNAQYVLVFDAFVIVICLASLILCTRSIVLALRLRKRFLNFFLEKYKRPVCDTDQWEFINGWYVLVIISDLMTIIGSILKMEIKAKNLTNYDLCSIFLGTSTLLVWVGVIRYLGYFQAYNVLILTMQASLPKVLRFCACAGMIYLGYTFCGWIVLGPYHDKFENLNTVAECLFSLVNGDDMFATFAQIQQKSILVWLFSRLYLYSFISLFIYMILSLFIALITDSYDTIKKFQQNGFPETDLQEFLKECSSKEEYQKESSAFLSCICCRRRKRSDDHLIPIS
# In short: as §1
# human TRPML1 = human TRPML1 (Homo sapiens, UniProt Q9GZU1); assay: Fluorescent TRPML1 assay (Fluo4-AM calcium fluorescence, HEK-293 Trex cells)
# In short: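 Tet-inducible HEK-293 Trex cells stably expressing surface-targeted mutant human TRPML1, induced with 0.5 ug/mL doxycycline overnight, loaded with Fluo4-AM and suspended in Ringer's with 10 mM calcium. Compounds tested from 20 μM to 6 nM final, half-log steps, in triplicate; fluorescence (ex 480/em 540) normalised to plate controls, EC50 by non-linear regression.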
# human TRPML1, sequence (Q9GZU1 whole entry L15A/L16A/L577A/L578A, form open): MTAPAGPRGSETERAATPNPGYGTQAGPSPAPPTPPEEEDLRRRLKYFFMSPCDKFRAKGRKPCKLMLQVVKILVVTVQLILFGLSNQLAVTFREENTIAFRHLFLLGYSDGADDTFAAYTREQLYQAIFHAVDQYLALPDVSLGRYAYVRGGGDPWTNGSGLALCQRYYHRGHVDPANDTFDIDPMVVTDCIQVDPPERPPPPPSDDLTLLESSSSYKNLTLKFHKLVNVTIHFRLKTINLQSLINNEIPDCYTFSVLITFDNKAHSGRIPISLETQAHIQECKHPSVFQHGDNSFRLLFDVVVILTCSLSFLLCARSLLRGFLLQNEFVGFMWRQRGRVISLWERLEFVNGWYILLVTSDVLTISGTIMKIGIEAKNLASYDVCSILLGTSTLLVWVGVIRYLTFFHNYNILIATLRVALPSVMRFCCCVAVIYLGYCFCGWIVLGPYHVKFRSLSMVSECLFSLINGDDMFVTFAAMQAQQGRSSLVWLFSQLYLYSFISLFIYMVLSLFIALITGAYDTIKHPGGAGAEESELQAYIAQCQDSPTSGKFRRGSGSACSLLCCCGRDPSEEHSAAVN
"pEC50 (TRPML3; Table 3, compounds 101-177)","pEC50 (TRPML2; Table 3, compounds 101-177)","pEC50 (human TRPML1; Table 3, compounds 101-177)","pEC50 (TRPML3; Table 3, compounds 201-283)","pEC50 (TRPML2; Table 3, compounds 201-283)","pEC50 (human TRPML1; Table 3, compounds 201-283)",Structure (SMILES)
> 7.00,6.30 to 7.00,> 7.00,–,–,–,"CC(C)(O)C(=O)N1CCN(c2ncnc3c2c(-c2ccccc2F)cn3-c2cc(C#N)ccn2)C(C)(C)C1 [Compound 170, 2-(5-(2-fluorophenyl)-4-(4-(2-hydroxy-2-methylpropanoyl)-2,2-dimethylpiperazin-1-yl)-7H-pyrrolo[2,3-d]pyrimidin-7-yl)isonicotinonitrile]"
> 7.00,6.30 to 7.00,> 7.00,–,–,–,"C[C@H]1CN(C(=O)CC(C)(C)C(F)(F)F)CCN1c1ncnc2c1c(C1CC1)cn2-c1cc(C#N)ccn1 [Compound 141, (S)-2-(5-cyclopropyl-4-(2-methyl-4-(4,4,4-trifluoro-3,3-dimethylbutanoyl)piperazin-1-yl)-7H-pyrrolo[2,3-d]pyrimidin-7-yl)isonicotinonitrile]"
> 7.00,6.30 to 7.00,> 7.00,–,–,–,"CCCN(CC)c1cn(-c2cc(C#N)ccn2)c2ncnc(N3CCN(C(=O)CC(C)(C)C)C[C@@H]3C)c12 [Compound 166, (S)-2-(4-(4-(3,3-dimethylbutanoyl)-2-methylpiperazin-1-yl)-5-(ethyl(propyl)amino)-7H-pyrrolo [2,3-d]pyrimidin-7-yl)isonicotinonitrile]"
> 7.00,> 7.00,> 7.00,–,–,–,"CC(C)(C)C(=O)N1CCN(c2ncnc3c2c(-c2ccccc2F)cn3-c2cc(C#N)ccn2)CC1 [Compound 108, 2-(5-(2-fluorophenyl)-4-(4-pivaloylpiperazin-1-yl)-7H-pyrrolo[2,3-d]pyrimidin-7-yl)isonicotinonitrile]"
–,–,–,> 7.00,6.30 to 7.00,> 7.00,"COC(C)(C)C(=O)N1CCN(c2ncnc3c2c(C2CC2)cn3-c2cc(C#N)ccn2)C[C@H]1C [Compound 265, (R)-2-(5-cyclopropyl-4-(4-(2-methoxy-2-methylpropanoyl)-3-methylpiperazin-1-yl)-7H-pyrrolo [2,3-d]pyrimidin-7-yl)isonicotinonitrile]"
> 7.00,> 7.00,> 7.00,–,–,–,"CC(C)C(=O)N1C[C@H](C)N(c2ncnc3c2c(-c2ccccc2F)cn3-c2cc(C#N)ccn2)C[C@H]1C [Compound 139, 2-(5-(2-fluorophenyl)-4-((2S,5R)-4-isobutyryl-2,5-dimethylpiperazin-1-yl)-7H-pyrrolo[2,3-d]pyrimidin-7-yl)isonicotinonitrile]"
> 7.00,6.30 to 7.00,> 7.00,–,–,–,"CC(C)C(=O)N1CCN(c2ncnc3c2c(-c2ccccc2F)cn3-c2cc(C#N)ccn2)C2(CC2)C1 [Compound 155, 2-(5-(2-fluorophenyl)-4-(7-isobutyryl-4,7-diazaspiro[2.5]octan-4-yl)-7H-pyrrolo[2,3-d]pyrimidin-7-yl)isonicotinonitrile]"
–,–,–,> 7.00,5.70 to 6.30,> 7.00,"COC(C)(C)C(=O)N1C[C@H](C)N(c2ncnc3c2c(N2CCC2)cn3-c2cc(C#N)ccn2)C[C@H]1C [Compound 268, 2-(5-(azetidin-1-yl)-4-((2S,5R)-4-(2-methoxy-2-methylpropanoyl)-2,5-dimethylpiperazin-1-yl)-7H-pyrrolo[2,3-d]pyrimidin-7-yl)isonicotinonitrile]"
–,–,–,5.70 to 6.30,5.70 to 6.30,> 7.00,"C[C@@H]1CN(c2ncnc3c2c(-c2ccccc2F)cn3-c2cc(F)ccn2)[C@@H](C)CN1C(=O)C1(F)CC1 [Compound 247, (1-fluorocyclopropyl)((2R,5S)-4-(5-(2-fluorophenyl)-7-(4-fluoropyridin-2-yl)-7H-pyrrolo[2,3-d]pyrimidin-4-yl)-2,5-dimethylpiperazin-1-yl)methanone]"

# Second part, the compound before the results:
Structure (SMILES),"pEC50 (TRPML3; Table 3, compounds 101-177)","pEC50 (TRPML2; Table 3, compounds 101-177)","pEC50 (human TRPML1; Table 3, compounds 101-177)","pEC50 (TRPML3; Table 3, compounds 201-283)","pEC50 (TRPML2; Table 3, compounds 201-283)","pEC50 (human TRPML1; Table 3, compounds 201-283)"
"Cc1nccnc1-c1cn(-c2cc(C#N)ccn2)c2ncnc(N3C[C@@H](C)N(C(=O)CC(C)C)C[C@@H]3C)c12 [Compound 173, 2-(4-((2S,5R)-2,5-dimethyl-4-(3-methylbutanoyl)piperazin-1-yl)-5-(3-methylpyrazin-2-yl)-7H-pyrrolo[2,3-d]pyrimidin-7-yl)isonicotinonitrile]",< 5.70,< 5.70,6.30 to 7.00,–,–,–
"C[C@@H]1CN(c2ncnc3c2c(C2CCC2)cn3-c2cccc(F)c2)[C@@H](C)CN1C(=O)C(C)(C)C [Compound 250, 1-((2R,5S)-4-(5-cyclobutyl-7-(3-fluorophenyl)-7H-pyrrolo[2,3-d]pyrimidin-4-yl)-2,5-dimethylpiperazin-1-yl)-2,2-dimethylpropan-1-one]",–,–,–,5.70 to 6.30,< 5.70,6.30 to 7.00
"C[C@@H]1CN(c2ncnc3c2c(C2CCC2)cn3-c2cc(F)cc(F)c2)[C@@H](C)CN1C(=O)CC(C)(C)C(F)(F)F [Compound 256, 1-((2R,5S)-4-(5-cyclobutyl-7-(3,5-difluorophenyl)-7H-pyrrolo[2,3-d]pyrimidin-4-yl)-2,5-dimethylpiperazin-1-yl)-4,4,4-trifluoro-3,3-dimethylbutan-1-one]",–,–,–,5.70 to 6.30,< 5.70,5.70 to 6.30
"CC(C)C(=O)N1CCN(c2ncnc3c2c(N2CCCC2)cn3-c2cc(C#N)ccn2)[C@@H](C)C1 [Compound 144, (S)-2-(4-(4-isobutyryl-2-methylpiperazin-1-yl)-5-(pyrrolidin-1-yl)-7H-pyrrolo[2,3-d]pyrimidin-7-yl)isonicotinonitrile]",6.30 to 7.00,6.30 to 7.00,> 7.00,–,–,–
"C[C@H]1CN(C(=O)C(C)(C)C)CCN1c1ncnc2c1c(C1CC1)cn2-c1cccc(F)c1 [Compound 215, (S)-1-(4-(5-cyclopropyl-7-(3-fluorophenyl)-7H-pyrrolo[2,3-d]pyrimidin-4-yl)-3-methylpiperazin-1-yl)-2,2-dimethylpropan-1-one]",–,–,–,5.70 to 6.30,6.30 to 7.00,6.30 to 7.00
"C[C@@H]1CN(c2ncnc3c2c(C2CCC2)cn3-c2cccc(C(F)(F)F)c2)[C@@H](C)CN1C(=O)C1(F)CC1 [Compound 260, ((2R,5S)-4-(5-cyclobutyl-7-(3-(trifluoromethyl)phenyl)-7H-pyrrolo[2,3-d]pyrimidin-4-yl)-2,5-dimethylpiperazin-1-yl)(1-fluorocyclopropyl)methanone]",–,–,–,5.70 to 6.30,< 5.70,6.30 to 7.00
CC(C)CC(=O)N1C[C@H](C)N(c2ncnc3c2c(C2CC2)cn3-c2cc(C#N)ccn2)C[C@H]1C [Compound 154],> 7.00,< 5.70,6.30 to 7.00,–,–,–
"C[C@@H]1CN(c2ncnc3c2c(C2CCC2)cn3-c2cccc(Cl)c2)[C@@H](C)CN1C(=O)CC(C)(C)C(F)(F)F [Compound 258, 1-((2R,5S)-4-(7-(3-chlorophenyl)-5-cyclobutyl-7H-pyrrolo[2,3-d]pyrimidin-4-yl)-2,5-dimethylpiperazin-1-yl)-4,4,4-trifluoro-3,3-dimethylbutan-1-one]",–,–,–,6.30 to 7.00,5.70 to 6.30,6.30 to 7.00
"C[C@H]1CN(C(=O)C2(F)CC2)CCN1c1ncnc2c1c(N1CCCC1)cn2-c1cccc(Cl)c1 [Compound 278, (S)-(4-(7-(3-chlorophenyl)-5-(pyrrolidin-1-yl)-7H-pyrrolo[2,3-d]pyrimidin-4-yl)-3-methylpiperazin-1-yl)(1-fluorocyclopropyl)methanone]",–,–,–,6.30 to 7.00,6.30 to 7.00,> 7.00
"C[C@@H]1CN(c2nccc3c2c(C2CC2)cn3-c2cccc(F)c2)[C@@H](C)CN1C(=O)C(C)(C)C [Compound 229, 1-((2R,5S)-4-(3-cyclopropyl-1-(3-fluorophenyl)-1H-pyrrolo[3,2-c]pyridin-4-yl)-2,5-dimethylpiperazin-1-yl)-2,2-dimethylpropan-1-one]",–,–,–,> 7.00,< 5.70,> 7.00
"C[C@@H]1CN(c2ncnc3c2c(C(F)(F)F)cn3-c2cc(C#N)ccn2)[C@@H](C)CN1C(=O)C(C)(C)C [Compound 207, 2-(4-((2S,5R)-2,5-dimethyl-4-pivaloylpiperazin-1-yl)-5-(trifluoromethyl)-7H-pyrrolo[2,3-d]pyrimidin-7-yl)isonicotinonitrile]",–,–,–,> 7.00,6.30 to 7.00,> 7.00
